Measured values published in patent US20240287138A1, “CYCLIC PEPTIDES FOR INHIBITING TNF RECEPTOR 1 ACTIVITY” (Merck Sharp & Dohme LLC, priority 2023, published 2024).
Where two headings read alike, the source gives them in different places. Numbered stars: 1 amine (or outer) side, 2 acyl side, 3 side chain; on linkers, the order of the positions; unused ones are H or OH. Bridge positions count the residues as written; N and C are the ends. Square brackets hold non-standard residues; d marks the D form. Peptide text beside a SMILES is read from it. * marks the point of attachment. Trp(βS-Me,7-OMe) = COc1cccc2c([C@H](C)[C@H](N)C(=O)O)c[nH]c12; Trp(1-CH2COOH) = N[C@@H](Cc1cn(CC(=O)O)c2ccccc12)C(=O)O; X44 = NC(=O)c1ccc([C@@H](O)[C@H](N[*:1])C(=O)[*:2])cc1; Phe(4-SO2NH2) = N[C@@H](Cc1ccc(S(N)(=O)=O)cc1)C(=O)O; dPro(trans-4-NMe2) = CN(C)[C@@H]1CN[C@@H](C(=O)O)C1; Ala(indazol-1-yl) = N[C@@H](Cn1ncc2ccccc21)C(=O)O; Trp(7-CN) = N#Cc1cccc2c(C[C@H](N)C(=O)O)c[nH]c12; Trp(7-Cl) = N[C@@H](Cc1c[nH]c2c(Cl)cccc12)C(=O)O; Phe(4-CONH2) = NC(=O)c1ccc(C[C@H](N)C(=O)O)cc1; Phe(4-COOH) = N[C@@H](Cc1ccc(C(=O)O)cc1)C(=O)O; Trp(7-aza) = N[C@@H](Cc1c[nH]c2ncccc12)C(=O)O; Phe(4-CH2NH2) = NCc1ccc(C[C@H](N)C(=O)O)cc1; X18 = O=C([C@@H]1C=C[C@H](N[*:1])C1)[*:2]; X58 = O=C([C@H](CCCCC(F)(F)F)N[*:1])[*:2]; Pip(5R-OH) = O=C(O)[C@@H]1CC[C@@H](O)CN1; X1 = O=C([C@@H]1CC[C@H](N[*:1])C1)[*:2]; Ala(2-furyl) = N[C@@H](Cc1ccco1)C(=O)O; Pip(4-aza) = O=C(O)[C@@H]1CNCCN1; 4Pal = N[C@@H](Cc1ccncc1)C(=O)O; NMeE = CN[C@@H](CCC(=O)O)C(=O)O; dHyp = O=C(O)[C@H]1C[C@H](O)CN1; X39 = C[C@H](C(=O)[*:1])[*:2]; αMeS = C[C@](N)(CO)C(=O)O; Carboxymethyl = O=C(O)C*; Nle = CCCC[C@H](N)C(=O)O; Me2NCH2CH2 = CN(C)CC*; Sar = CNCC(=O)O

How the values were obtained:
[1] = biological target: T1, human soluble TNFR1 (sTNFR1) (Homo sapiens, UniProt P19438); assay: Human sTNFR1-peptide displacement assay (LanthaScreen Eu TR-FRET binding assay)
T1 construct: made in house; host or cells: Sf21 (baculovirus)
T1 sequence (P19438 with tags, fused parts or gaps): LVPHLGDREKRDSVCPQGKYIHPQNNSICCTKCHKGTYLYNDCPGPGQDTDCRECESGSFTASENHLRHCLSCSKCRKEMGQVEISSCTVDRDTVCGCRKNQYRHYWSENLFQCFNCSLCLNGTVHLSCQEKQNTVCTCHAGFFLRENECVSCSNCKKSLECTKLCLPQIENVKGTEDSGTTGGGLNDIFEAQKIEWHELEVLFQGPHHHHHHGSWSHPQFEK
Summary of the method: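 Readout is the 665/615 nm TR-FRET ratio (Eu anti-His donor, streptavidin-Alexa647 acceptor), normalized to DMSO and saturating displacer, fit by Morrison-based five-parameter logistic for Kd^app. His-tagged sTNFR1 (1-211) prebound to 100 nM biotinylated peptide SEQ ID NO.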

[2] = biological target: T2, TNFα-induced NF-κB signal transduction pathway (TNFR1 signaling) in THP-1 cells (Homo sapiens, UniProt P19438); assay: THP-1 Lucia NF-κB reporter cell assay, inhibition of TNFα-induced NF-κB signaling; type: cell-based; conditions: THP-1 NF-κB Lucia reporter cells, 10 ng/mL TNFα, 16-18 h, secreted luciferase, read-out: THP-1 IC50
T2 sequence (P19438 30-455): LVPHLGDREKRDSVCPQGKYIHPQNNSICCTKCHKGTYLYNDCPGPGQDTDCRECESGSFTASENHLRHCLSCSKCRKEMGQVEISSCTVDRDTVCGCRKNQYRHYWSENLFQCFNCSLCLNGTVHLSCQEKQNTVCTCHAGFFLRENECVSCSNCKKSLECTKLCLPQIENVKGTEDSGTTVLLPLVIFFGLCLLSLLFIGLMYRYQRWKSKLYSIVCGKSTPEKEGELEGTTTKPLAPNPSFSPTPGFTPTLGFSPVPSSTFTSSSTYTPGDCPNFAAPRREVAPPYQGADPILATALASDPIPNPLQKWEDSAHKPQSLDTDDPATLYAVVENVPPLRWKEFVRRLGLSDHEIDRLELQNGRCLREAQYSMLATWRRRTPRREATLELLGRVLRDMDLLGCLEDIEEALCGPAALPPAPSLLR
Summary of the method: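 Read-out: secreted Lucia luciferase luminescence (QUANTI-Luc) from supernatant after 16-18 h, 37 °C, 10 ng/mL rhTNFα. Peptide pretreatment 1 h at 37 °C; 20,000 cells/well, selection antibiotics omitted. IC50 via 4-parameter logistic model against min/max controls.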

[3] = displacement of biotinylated peptide SEQ ID NO. 1 from sTNFR1, 20 point titration, 5-parameter fit based on Morrison equation (tight binding), read-out: TR-FRET Kd^app

SMILES	Kd [1, 3]	IC50 ([1]; displacement of biotinylated peptide SEQ ID NO. 1 from sTNFR1, weaker binders, 10 pts titration, 4-parameter logistic model, read-out: TR-FRET, IC50)	IC50 [2]	Kd [1]	IC50 [1]	IC50 ([2]; listed as 284)
CCCC[C@@H]1NC(=O)[C@@H](C)SC[C@@H](C(N)=O)NC(=O)[C@H]([C@@H](C)c2c[nH]c3c(OC)cccc23)NC(=O)CN(C)C(=O)[C@H](Cc2ccc(O)cc2)NC(=O)[C@H](Cc2ccc(C(N)=O)cc2)NC(=O)[C@](C)(CO)NC(=O)[C@H](Cc2c[nH]c3c(Cl)cccc23)NC(=O)[C@H](Cc2ccncc2)NC(=O)[C@H](CC(N)=O)NC(=O)[C@H](CCC(=O)O)N(C)C(=O)[C@H](Cc2c[nH]c3ncccc23)NC(=O)[C@H](CO)NC(=O)[C@H](Cc2ccc(CN)cc2)NC1=O [SEQ ID NO. 250] ([Nle][Phe(4-CH2NH2)]S[Trp(7-aza)][NMeE]N[4Pal][Trp(7-Cl)][αMeS][Phe(4-CONH2)]Y[Sar][Trp(βS-Me,7-OMe)]C-NH2; linker N-14 via X39)	170 pM	270 pM	2400 pM			
CCCC[C@@H]1NC(=O)[C@@H]2CC[C@@H](C2)NC(=O)[C@H]([C@@H](C)c2c[nH]c3c(OC)cccc23)NC(=O)CN(C)C(=O)[C@H]([C@H](O)c2ccc(C(N)=O)cc2)NC(=O)[C@H](Cc2ccc(S(N)(=O)=O)cc2)NC(=O)[C@](C)(CO)NC(=O)[C@H](Cc2c[nH]c3c(C#N)cccc23)NC(=O)[C@H](Cc2ccc(C(=O)O)cc2)NC(=O)[C@H](CC(N)=O)NC(=O)[C@H]2C[C@H](O)CN2C(=O)[C@H](Cc2cn(CC(=O)O)c3ccccc23)NC(=O)[C@@H]2CC[C@@H](O)CN2C(=O)[C@H](Cc2ccncc2)NC1=O [SEQ ID NO. 210] (cyclo([4Pal][Pip(5R-OH)][Trp(1-CH2COOH)][dHyp]N[Phe(4-COOH)][Trp(7-CN)][αMeS][Phe(4-SO2NH2)][X44][Sar][Trp(βS-Me,7-OMe)][X1][Nle]))	120 pM		500 pM			
CCCC[C@@H]1NC(=O)[C@@H]2C=C[C@@H](C2)NC(=O)[C@H]([C@@H](C)c2c[nH]c3c(OC)cccc23)NC(=O)CN(C)C(=O)[C@H](Cc2ccc(O)cc2)NC(=O)[C@H](Cc2ccc(C(=O)O)cc2)NC(=O)[C@](C)(CO)NC(=O)[C@H](Cc2c[nH]c3c(Cl)cccc23)NC(=O)[C@H](Cc2ccncc2)NC(=O)[C@H](CC(N)=O)NC(=O)[C@H](CCC(=O)O)N(C)C(=O)[C@H](Cc2c[nH]c3ccccc23)NC(=O)[C@@H]2CNCCN2C(=O)[C@H](Cc2ccncc2)NC1=O [SEQ ID NO. 182] (cyclo([4Pal][Trp(7-Cl)][αMeS][Phe(4-COOH)]Y[Sar][Trp(βS-Me,7-OMe)][X18][Nle][4Pal][Pip(4-aza)]W[NMeE]N))			900 pM	200 pM		
COc1cccc2c([C@H](C)[C@@H]3NC(=O)CN(C)C(=O)[C@H](Cc4ccc(O)cc4)NC(=O)[C@H](Cc4ccc(C(=O)O)cc4)NC(=O)[C@](C)(CO)NC(=O)[C@H](Cc4c[nH]c5c(Cl)cccc45)NC(=O)[C@H](Cc4ccncc4)NC(=O)[C@H](CC(N)=O)NC(=O)[C@H](CCC(=O)O)N(C)C(=O)[C@H](Cc4c[nH]c5ccccc45)NC(=O)[C@@H]4CNCCN4C(=O)[C@H](Cc4ccncc4)NC(=O)[C@H](CCCCC(F)(F)F)NC(=O)[C@@H]4CC[C@@H](C4)NC3=O)c[nH]c12 [SEQ ID NO. 213] (cyclo([4Pal][Trp(7-Cl)][αMeS][Phe(4-COOH)]Y[Sar][Trp(βS-Me,7-OMe)][X1][X58][4Pal][Pip(4-aza)]W[NMeE]N))			1000 pM	310 pM		
CCCC[C@@H]1NC(=O)CSC[C@@H](C(N)=O)NC(=O)[C@H]([C@@H](C)c2c[nH]c3c(OC)cccc23)NC(=O)CN(C)C(=O)[C@H](Cc2ccc(O)cc2)NC(=O)[C@H](Cc2ccc(C(=O)O)cc2)NC(=O)[C@](C)(CO)NC(=O)[C@H](Cc2c[nH]c3c(Cl)cccc23)NC(=O)[C@H](Cc2ccco2)NC(=O)[C@H](CC(N)=O)NC(=O)[C@H]2CCCN2C(=O)[C@H](Cc2c[nH]c3ccccc23)NC(=O)[C@@H]2CNCCN2C(=O)[C@H](Cc2ccncc2)NC1=O [SEQ ID NO. 236] ({CH2CO}-[Nle][4Pal][Pip(4-aza)]W[dP]N[Ala(2-furyl)][Trp(7-Cl)][αMeS][Phe(4-COOH)]Y[Sar][Trp(βS-Me,7-OMe)]C-NH2; thioether N-14)			4200 pM		900 pM	
CCCC[C@@H]1NC(=O)[C@@H]2CC[C@@H](C2)NC(=O)[C@H]([C@@H](C)c2c[nH]c3c(OC)cccc23)NC(=O)CN(C)C(=O)[C@H](Cc2ccc(OCCN(C)C)cc2)NC(=O)[C@H](Cc2ccc(C(=O)O)cc2)NC(=O)[C@](C)(CO)NC(=O)[C@H](Cc2c[nH]c3c(Cl)cccc23)NC(=O)[C@H](Cc2ccncc2)NC(=O)[C@H](CC(N)=O)NC(=O)[C@H](CCC(=O)O)N(C)C(=O)[C@H](Cc2c[nH]c3ccccc23)NC(=O)[C@@H]2CNCCN2C(=O)[C@H](Cc2ccncc2)NC1=O [SEQ ID NO. 195] (cyclo([4Pal][Trp(7-Cl)][αMeS][Phe(4-COOH)]Y(Me2NCH2CH2)[Sar][Trp(βS-Me,7-OMe)][X1][Nle][4Pal][Pip(4-aza)]W[NMeE]N))			1600 pM	280 pM		
CCCC[C@@H]1NC(=O)[C@@H]2CC[C@@H](C2)NC(=O)[C@H]([C@@H](C)c2c[nH]c3c(OC)cccc23)NC(=O)CN(C)C(=O)[C@H](Cc2ccc(C(=O)O)cc2)NC(=O)[C@H](Cc2ccc(C(N)=O)cc2)NC(=O)[C@](C)(CO)NC(=O)[C@H](Cc2c[nH]c3c(C#N)cccc23)NC(=O)[C@H](Cc2ccc(C(=O)O)cc2)NC(=O)[C@H](CC(N)=O)NC(=O)[C@H]2C[C@H](OCC(=O)O)CN2C(=O)[C@H](Cc2c[nH]c3ncccc23)NC(=O)[C@@H]2CC[C@@H](O)CN2C(=O)[C@H](Cc2ccncc2)NC1=O [SEQ ID NO. 284] (cyclo([4Pal][Pip(5R-OH)][Trp(7-aza)][dHyp](Carboxymethyl)N[Phe(4-COOH)][Trp(7-CN)][αMeS][Phe(4-CONH2)][Phe(4-COOH)][Sar][Trp(βS-Me,7-OMe)][X1][Nle]))				90 pM		800 pM
CCCC[C@@H]1NC(=O)[C@@H]2CC[C@@H](C2)NC(=O)[C@H]([C@@H](C)c2c[nH]c3c(OC)cccc23)NC(=O)CN(C)C(=O)[C@H](Cc2ccc(OCC(=O)O)cc2)NC(=O)[C@H](Cc2ccc(S(N)(=O)=O)cc2)NC(=O)[C@](C)(CO)NC(=O)[C@H](Cc2c[nH]c3c(C#N)cccc23)NC(=O)[C@H](Cc2ccc(OCC(=O)O)cc2)NC(=O)[C@H](CC(N)=O)NC(=O)[C@H]2C[C@H](O)CN2C(=O)[C@H](Cn2ncc3ccccc32)NC(=O)[C@@H]2CC[C@@H](O)CN2C(=O)[C@H](Cc2ccncc2)NC1=O [SEQ ID NO. 286] (cyclo([4Pal][Pip(5R-OH)][Ala(indazol-1-yl)][dHyp]NY(Carboxymethyl)[Trp(7-CN)][αMeS][Phe(4-SO2NH2)]Y(Carboxymethyl)[Sar][Trp(βS-Me,7-OMe)][X1][Nle]))			400 pM	50 pM		
CCCC[C@@H]1NC(=O)[C@@H]2CC[C@@H](C2)NC(=O)[C@H]([C@@H](C)c2c[nH]c3c(OC)cccc23)NC(=O)CN(C)C(=O)[C@H]([C@H](O)c2ccc(C(N)=O)cc2)NC(=O)[C@H](Cc2ccc(C(=O)O)cc2)NC(=O)[C@](C)(CO)NC(=O)[C@H](Cc2c[nH]c3c(C#N)cccc23)NC(=O)[C@H](Cc2ccc(C(=O)O)cc2)NC(=O)[C@H](CC(N)=O)NC(=O)[C@H]2C[C@H](N(C)C)CN2C(=O)[C@H](Cc2c[nH]c3ncccc23)NC(=O)[C@@H]2CNCCN2C(=O)[C@H](Cc2ccncc2)NC1=O [SEQ ID NO. 287] (cyclo([4Pal][Pip(4-aza)][Trp(7-aza)][dPro(trans-4-NMe2)]N[Phe(4-COOH)][Trp(7-CN)][αMeS][Phe(4-COOH)][X44][Sar][Trp(βS-Me,7-OMe)][X1][Nle]))			1700 pM	220 pM		
